Measurements as given in ChEMBL document CHEMBL5338731, “Development of Neuropeptide Hemokinin-1 Analogues with Antimicrobial and Wound-Healing Activity” (J Med Chem, 2023).
≈ marks a conversion by molar mass, not a printed value. Calls of active or inactive are those of the source. No cut-off for these calls is given here.

Columns and labels:
RAW264.7 [1] = assay: Cytotoxicity against mouse RAW264.7 cells assessed as reduction in cell viability at 1 to 16 uM incubated for 24 hrs by MTT assay; assay type: toxicity, cell-based; settings: raw264.7, 24 h, dose 1-16 µM
Staphylococcus aureus [2] = assay: Antimicrobial activity against Staphylococcus aureus ATCC 25923 assessed as inhibition of bacterial growth incubated for 18 hrs by serial dilution method; assay type: functional
NIH3T3 [3] = assay: Induction of cell proliferation in mouse NIH3T3 cells assessed as increase in cell viability at 0.1 to 1000 nM incubated for 48 hrs by MTT assay; assay type: functional, cell-based; settings: dose 0.1-1000 nM
Mus musculus [4] = species: Mus musculus; assay: Wound healing activity in Kunming mouse full-thickness excisional wound model assessed as increase in wound closure at 1 10^-7M, TOP BID and measured upto 8 days by image analysis; assay type: functional, organism-based; settings: time <= 8.0 day
HEK293 [5] = assay: Induction of cell proliferation in human HEK293 cells assessed as increase in cell viability at 0.1 to 1000 nM incubated for 48 hrs by MTT assay; assay type: functional, cell-based; settings: dose 0.1-1000 nM
HEK293 [6] = assay: Induction of cell proliferation in human HEK293 cells expressing NK1R assessed as increase in cell viability at 0.1 to 1000 nM incubated for 48 hrs by MTT assay; assay type: functional, cell-based; settings: dose 0.1-1000 nM
Pseudomonas aeruginosa [7] = assay: Antimicrobial activity against Pseudomonas aeruginosa ATCC 27853 assessed as inhibition of bacterial growth incubated for 18 hrs by serial dilution method; assay type: functional
Escherichia coli [8] = assay: Antimicrobial activity against Escherichia coli ML-35 assessed as inhibition of bacterial growth incubated for 18 hrs by serial dilution method; assay type: functional
Pseudomonas aeruginosa [9] = assay: Antimicrobial activity against Pseudomonas aeruginosa PAO1 assessed as inhibition of bacterial growth incubated for 18 hrs by serial dilution method; assay type: functional
Escherichia coli [10] = assay: Antimicrobial activity against Escherichia coli ATCC 25922 assessed as inhibition of bacterial growth incubated for 18 hrs by serial dilution method; assay type: functional
Staphylococcus aureus [11] = assay: Antimicrobial activity against Staphylococcus aureus ATCC 29213 assessed as inhibition of bacterial growth incubated for 18 hrs by serial dilution method; assay type: functional
NIH3T3 [12] = assay: Induction of cell migration in mouse NIH3T3 cells assessed as […] at 0.1 to 1000 nM incubated for 48 hrs by phase-contrast microscopy based scratch wound healing assay; assay type: functional; settings: dose 0.1-1000 nM
[13] = Hemolytic activity in mouse erythrocytes assessed as haemoglobin release at 400 uM incubated for 1 hrs by microplate reader method; assay type: toxicity, cell-based, Erythrocyte; settings: read-out: Activity
RAW264.7 [14] = assay: Anti-inflammatory activity in LPS-stimulated mouse RAW264.7 cells assessed as inhibition of NO production at 16 uM incubated for 24 hrs by Griess reagent based assay; assay type: functional, cell-based
Bacillus subtilis = assay: Antimicrobial activity against Bacillus subtilis ATCC 23857 assessed as inhibition of bacterial growth incubated for 18 hrs by serial dilution method; assay type: functional
Mus musculus [15] = species: Mus musculus; assay: Antimicrobial activity in Staphylococcus aureus ATCC 25923 infected Kunming mouse excisional wound model assessed as decrease in bacterial growth at 1 10^-4M, TOP BID and measured upto 8 days by image analysis; assay type: functional, organism-based; settings: time <= 8.0 day
Mus musculus [16] = species: Mus musculus; assay: Wound healing activity in Staphylococcus aureus ATCC 25923 infected Kunming mouse excisional wound model assessed as increase in wound repair at 1 10^-4M, TOP BID and measured upto 8 days by image analysis; assay type: functional, organism-based; settings: time <= 8.0 day
Staphylococcus aureus [17] = assay: Bactericidal activity against Staphylococcus aureus ATCC 25923 assessed as reduction in colony forming unit at 2 times MIC and measured after 120 mins by time-kill kinetics assay; assay type: functional, organism-based
Lipopolysaccharide (LPS) = assay: Binding affinity to Escherichia coli O111:B4 LPS assessed as dissociation constant by ITC assay
RAW264.7 [18] = assay: Anti-inflammatory activity against LPS-stimulated mouse RAW264.7 cells assessed as reduction in TNF-alpha mRNA expression level at 1 to 16 uM incubated for 4 hrs by RT-qPCR analysis; assay type: functional, cell-based; settings: dose 1-16 µM
RAW264.7 [19] = assay: Anti-inflammatory activity against LPS-stimulated mouse RAW264.7 cells assessed as reduction in IL-6 mRNA expression level at 1 to 16 uM incubated for 4 hrs by RT-qPCR analysis; assay type: functional, cell-based; settings: dose 1-16 µM
Mus musculus [20] = species: Mus musculus; assay: Wound healing activity in Kunming mouse full-thickness excisional wound model with splints assessed as increase in wound healing rate at 1 10^-7M, TOP BID and measured upto 8 days by image analysis; assay type: functional, organism-based; settings: time <= 8.0 day
RAW264.7 [21] = assay: Anti-inflammatory activity against LPS-stimulated mouse RAW264.7 cells assessed as reduction in IL-1beta mRNA expression level at 1 to 16 uM incubated for 4 hrs by RT-qPCR analysis; assay type: functional, cell-based; settings: dose 1-16 µM
[22] = Cytotoxicity against mouse RAW264.7 cells assessed as cell survival rate at 16 uM incubated for 24 hrs by MTT assay; assay type: toxicity, cell-based; settings: read-out: Survival

| Molecule | MIC (Staphylococcus aureus [2]) [µM] | Activity (NIH3T3 [3]) | Activity (Mus musculus [4]) | Activity (HEK293 [5]) | Activity (HEK293 [6]) | MIC (Pseudomonas aeruginosa [7]) [µM] | MIC (Escherichia coli [8]) [µM] | MIC (Pseudomonas aeruginosa [9]) [µM] | MIC (Escherichia coli [10]) [µM] | MIC (Staphylococcus aureus [11]) [µM] | Activity (NIH3T3 [12]) | hemolysis at 1 h, 400 µM [13] [%] | inhibition (RAW264.7 [14]) | MIC (Bacillus subtilis) [µM] | also measured |
| --- | --- | --- | --- | --- | --- | --- | --- | --- | --- | --- | --- | --- | --- | --- | --- |
| CSCC[C@H](NC(=O)[C@H](CC(C)C)NC(=O)CNC(=O)[C@H](Cc1ccccc1)NC(=O)[C@H](Cc1ccccc1)NC(=O)[C@H](CCC(N)=O)NC(=O)[C@H](CO)NC(=O)[C@H](C)NC(=O)[C@H](CCCCN)NC(=O)CNC(=O)[C@@H](N)[C@H](C)O)C(N)=O | > 128 | Active | Active | inactive | Active | > 128 | > 128 | > 128 | > 128 | > 128 | Active | 5.05 | inactive | > 128 | Activity (RAW264.7 [1]): Non-Toxic |
| CC1(C)S[C@@H]2[C@H](NC(=O)[C@H](N)c3ccc(O)cc3)C(=O)N2[C@H]1C(=O)O [AMOXICILLIN] | < 1 | – | – | – | – | > 128 | 16 (≈ 5.85 µg/mL) | > 128 | 4 (≈ 1.46 µg/mL) | 2 (≈ 0.731 µg/mL) | – | – | – | 8 (≈ 2.92 µg/mL) | – |
| CN[C@H](CC(C)C)C(=O)N[C@H]1C(=O)N[C@@H](CC(N)=O)C(=O)N[C@H]2C(=O)N[C@H]3C(=O)N[C@H](C(=O)N[C@H](C(=O)O)c4cc(O)cc(O)c4-c4cc3ccc4O)[C@H](O)c3ccc(c(Cl)c3)Oc3cc2cc(c3O[C@@H]2O[C@H](CO)[C@@H](O)[C@H](O)[C@H]2O[C@H]2C[C@](C)(N)[C@H](O)[C@H](C)O2)Oc2ccc(cc2Cl)[C@H]1O [VANCOMYCIN] | < 1 | – | – | – | – | > 128 | 64 (≈ 92.8 µg/mL) | > 128 | 64 (≈ 92.8 µg/mL) | < 1 | – | – | – | < 1 | Activity (Mus musculus [15]): Active; Activity (Mus musculus [16]): Active; Activity (Staphylococcus aureus [17]): inactive |
| H-LKKWLKKWTGKASQFFGLM-NH2 | 4 | Active | Active | inactive | Active | 4 | 2 | 4 | 2 | 8 | Active | 7.88 | Active | 2 | Kd (Lipopolysaccharide (LPS)): 25 µM; Activity (RAW264.7 [18]): Dose-Dependent Effect; Activity (RAW264.7 [19]): Dose-Dependent Effect; Activity (Mus musculus [20]): Active; Activity (RAW264.7 [21]): Dose-Dependent Effect; viability at 24 h, 16 µM [22]: > 90% |
